Measurements from patent US5015737A, “Therapeutically useful beta-lactams” (The Upjohn Company, priority 1990, dated 1991).
Values after ≈ are worked out from the molar mass of the structure shown. Where two headings read alike, the source gives them in different places.

Legend:
Assay in all cases: MIC determination by agar dilution (Mueller Hinton Agar)
Assay type in all cases: cell-based
Enterobacter cloacae = details: 20 h, read-out: Minimum Inhibitory Concentration
Protocol: (§1) The compounds of this invention and their respective pharmaceutically acceptable salts have antibiotic activity against a variety of gram-negative bacteria including Escherichia coli, Klebsiella pneumoniae and Pseudomonas aeruginosa. The compounds are useful for treating bacterial infections in animals, including and most preferably humans. Compounds of the invention are tested for in vitro antimicrobial activity using standard testing procedures such as the determination of minimum inhibitory concentration (MIC) by methods described in "Methods for Dilution Antimicrobial Susceptibility Tests for Bacteria That Grow Aerobically" (M7-A) Published December 1985 by the National Committee for Clinical Laboratory standards, 771 East Lancaster Avenue, Villanova, Pa., 19084. Briefly, MIC values are determined in unsupplemented Mueller Hinton Agar (MHA). The compounds tested are diluted serially into molten MHA at 47° C. The agar is poured into petri dishes and allowed to harden. The various bacteria used for testing are grown overnight on MHA at 35° C. and transferred to Tryptiease Soy Broth (TSB) until a turbidity of 0.5 McFarland standard is obtained. The bacteria are diluted one to twenty in TSB and inoculated on the plates (1 μl using a Steers replicator). […] The MIC test results of four typical compounds of this invention.

Proteus vulgaris = details: Culture Number 9679, 35° C., 20 hours, read-out: Minimum Inhibitory Concentration
Protocol: as §1

Escherichia coli = details: 20 h, read-out: Minimum Inhibitory Concentration
Protocol: as §1

Serratia marcescens = details: Culture Number 6888, 35° C., 20 hours, read-out: Minimum Inhibitory Concentration
Protocol: as §1

Pseudomonas aeruginosa = details: 20 h, read-out: Minimum Inhibitory Concentration
Protocol: as §1

Streptococcus faecalis = details: Enterococcus faecalis, 35° C., 20 hours, read-out: Minimum Inhibitory Concentration
Protocol: as §1

Klebsiella pneumoniae = details: Culture Number 58, 35° C., 20 hours, read-out: Minimum Inhibitory Concentration
Protocol: as §1

Citrobacter freundii = details: Culture Number 3507, 35° C., 20 hours, read-out: Minimum Inhibitory Concentration
Protocol: as §1

Staphylococcus aureus = details: 35° C., 20 hours; for MIC: Staphylococcus aureus, read-out: Minimum Inhibitory Concentration
Protocol: as §1

[1] = system: Acinetobacter calcoaceticus; details: Culture Number 12170, 35° C., 20 hours, read-out: Minimum Inhibitory Concentration
Protocol: as §1

Klebsiella oxytoca = details: 20 h, read-out: Minimum Inhibitory Concentration
Protocol: as §1

Streptococcus pneumoniae = details: Culture Number 41, 35° C., 20 hours, read-out: Minimum Inhibitory Concentration
Protocol: as §1

Streptococcus pyogenes = details: Culture Number 152, 35° C., 20 hours, read-out: Minimum Inhibitory Concentration
Protocol: as §1

Staphylococcus epidermis = details: Culture Number 30031, 35° C., 20 hours, read-out: Minimum Inhibitory Concentration
Protocol: as §1

Acinetobacter sp. = details: Culture Number 30278, 35° C., 20 hours, read-out: Minimum Inhibitory Concentration
Protocol: as §1

Row | MIC (Enterobacter cloacae; Culture Number 9381, 35° C.) [µg/mL] | MIC (Enterobacter cloacae; Culture Number 9382, 35° C.) [µg/mL] | MIC (Proteus vulgaris) [µg/mL] | MIC (Escherichia coli; Culture Number 9379, 35° C.) [µg/mL] | MIC (Escherichia coli; Culture Number 9380, 35° C.) [µg/mL] | MIC (Escherichia coli; Culture Number 9451, 35° C.) [µg/mL] | MIC (Escherichia coli; Culture Number 9952, 35° C.) [µg/mL] | MIC (Serratia marcescens) [µg/mL] | MIC (Pseudomonas aeruginosa; Culture Number 231, 35° C.) [µg/mL] | MIC (Pseudomonas aeruginosa; Culture Number 6676, 35° C.) [µg/mL] | MIC (Pseudomonas aeruginosa; Culture Number 9191, 35° C.) [µg/mL] | MIC (Streptococcus faecalis; Culture Number 9217) [µg/mL] | MIC (Klebsiella pneumoniae) [µg/mL] | MIC (Citrobacter freundii) [µg/mL] | MIC (Klebsiella oxytoca; Culture Number 9383, 35° C.) [µg/mL] | MIC (Klebsiella oxytoca; Culture Number 9384, 35° C.) [µg/mL] | MIC (Streptococcus pneumoniae) [µg/mL] | MIC (Streptococcus pyogenes) [µg/mL] | Compound | Minimum Inhibitory Concentration (Staphylococcus aureus; Culture Number 6685) [µg/mL] | Minimum Inhibitory Concentration (Staphylococcus aureus; Culture Number 9213) [µg/mL] | further results
1 | 8 (≈ 11.5 µM) | 2 (≈ 2.86 µM) | 0.06 (≈ 0.0859 µM) | 0.03 (≈ 0.0429 µM) | < 0.008 | < 0.008 | 0.015 (≈ 0.0215 µM) | 0.06 (≈ 0.0859 µM) | 0.125 (≈ 0.179 µM) | 0.5 (≈ 0.716 µM) | 0.125 (≈ 0.179 µM) | > 64 | 0.5 (≈ 0.716 µM) | 0.03 (≈ 0.0429 µM) | 0.25 (≈ 0.358 µM) | 0.06 (≈ 0.0859 µM) | > 64 | > 64 | C[C@H]1[C@H](NS(=O)(=O)NC(=O)N2C[C@H](NC(=O)/C(=N\OC(C)(C)C(=O)O)c3csc(N)n3)C2=O)C(=O)NN1C(=O)c1cc(=O)c(O)c[nH]1 [60(m), 3(S)-3-[2 (2-amino-4-thiazoyl)-Z-(2)(carboxyisopropyloxyimino)-acetamido]-1-[(3-hydroxy-4-pyridon-6-yl) 1-carbonyl-5(S)-methyl-pyrazolidinone-4(S)-amino]-sulfonylaminocarbonyl-2-azetidinone] | > 64 | > 64 | Minimum Inhibitory Concentration (Staphylococcus aureus; Culture Number 9218): > 64 µg/mL; MIC (Staphylococcus aureus; Culture Number 3665): > 64 µg/mL; MIC [1]: 2 µg/mL (≈ 2.86 µM)
2 | 8 (≈ 11.7 µM) | 1 (≈ 1.46 µM) | 0.06 (≈ 0.0876 µM) | < 0.008 | < 0.008 | < 0.008 | – | 0.03 (≈ 0.0438 µM) | 0.25 (≈ 0.365 µM) | – | 0.25 (≈ 0.365 µM) | – | 0.5 (≈ 0.73 µM) | 0.03 (≈ 0.0438 µM) | 0.125 (≈ 0.183 µM) | 0.06 (≈ 0.0876 µM) | > 64 | 64 (≈ 93.5 µM) | CC(C)(O/N=C(\C(=O)N[C@H]1CN(C(=O)NS(=O)(=O)N[C@H]2CN(C(=O)c3cc(=O)c(O)c[nH]3)NC2=O)C1=O)c1csc(N)n1)C(=O)O [60(b), 3(S)-3-[2-(2-Amino-4-thiazoyl)-Z-(2)-(carboxyisopropyloxyimino)acetamido]-1-[(3-hydroxy-4-pyridon-6-yl)-1-carbonyl-pyrazolidinone-4-(S)-amino]-sulfonyl-amino-carbonyl-2-azetidinone] | > 64 | > 64 | MIC (Streptococcus faecalis; Culture Number 694): > 64 µg/mL; MIC (Staphylococcus epidermis): > 64 µg/mL; Minimum Inhibitory Concentration (Staphylococcus aureus; Culture Number 3665): > 64 µg/mL; MIC (Staphylococcus aureus; Culture Number 9218): > 64 µg/mL
3 | 8 (≈ 11.5 µM) | 2 (≈ 2.86 µM) | 0.06 (≈ 0.0859 µM) | 0.03 (≈ 0.0429 µM) | 0.015 (≈ 0.0215 µM) | 0.015 (≈ 0.0215 µM) | 0.015 (≈ 0.0215 µM) | 0.06 (≈ 0.0859 µM) | 0.125 (≈ 0.179 µM) | 0.25 (≈ 0.358 µM) | 0.06 (≈ 0.0859 µM) | > 64 | 0.5 (≈ 0.716 µM) | 0.06 (≈ 0.0859 µM) | 0.125 (≈ 0.179 µM) | 0.06 (≈ 0.0859 µM) | > 64 | > 64 | C[C@H]1[C@@H](NS(=O)(=O)NC(=O)N2C[C@H](NC(=O)/C(=N\OC(C)(C)C(=O)O)c3csc(N)n3)C2=O)C(=O)NN1C(=O)c1cc(=O)c(O)c[nH]1 [60(p), 3(S)-3-[2-(2-amino-4-thiazoyl)-Z-(2)-(carboxyisopropyloxyimino)-acetamido]-1-[(3-hydroxy-4-pyridon-6-yl)-1-carbonyl-5(S)-methyl-pyrazolidinone-4(R)-amino]-sulfonylaminocarbonyl-2-azetidinone] | > 64 | > 64 | Minimum Inhibitory Concentration (Staphylococcus aureus; Culture Number 9218): > 64 µg/mL; MIC (Staphylococcus aureus; Culture Number 3665): > 64 µg/mL; MIC [1]: 1 µg/mL (≈ 1.43 µM)
4 | 4 (≈ 5.84 µM) | 1 (≈ 1.46 µM) | 0.06 (≈ 0.0876 µM) | 0.015 (≈ 0.0219 µM) | < 0.008 | 0.015 (≈ 0.0219 µM) | – | 0.03 (≈ 0.0438 µM) | 0.25 (≈ 0.365 µM) | 2 (≈ 2.92 µM) | 0.125 (≈ 0.183 µM) | – | 0.5 (≈ 0.73 µM) | 0.06 (≈ 0.0876 µM) | 0.125 (≈ 0.183 µM) | 0.125 (≈ 0.183 µM) | > 64 | > 64 | CC(C)(O/N=C(\C(=O)N[C@H]1CN(C(=O)NS(=O)(=O)N[C@@H]2CN(C(=O)c3cc(=O)c(O)c[nH]3)NC2=O)C1=O)c1csc(N)n1)C(=O)O [60(d), 3(S)-3-[2-(2-Amino-4-thiazolyl)-Z-(2)(carboxyisopropyloxyimino)-acetamido]-1-[(3-hydroxy-4-pyridon-6-yl)-1-carbonyl-pyrazolidinone-4(R)-amino]-sulfonyl-aminocarbonyl-2-azetidinone] | – | – | MIC (Acinetobacter sp.): 1 µg/mL (≈ 1.46 µM); MIC (Staphylococcus aureus; Culture Number 9218): 64 µg/mL (≈ 93.5 µM)
